This note sets out measurements from patent publication US4405642A, “Method for treatment or prophylaxis of cardiac disorders” (American Hospital Supply Corporation, priority 1980, dated 1983).

For data set [1], the target named is T1, β-adrenergic receptors (guinea pig right atria) (Cavia porcellus, UniProt H0W3H1).
T1 construct: Atria were allowed to beat spontaneously under a loading tension; from tissue; host or cells: guinea pig right atria (isolated, spontaneously beating)
Nature of the data set: β-blocking activity in vitro, guinea pig right atria (rate response to isoproterenol). Particulars: vs isoproterenol, guinea pig right atria, 60 minute incubation, 37° C.; for Kb: read-out: pA2 Atria (converted). It counts as cell-based. Here is the method: (§1) Each tissue was suspended between a fixed glass rod and a Statham® Universal Transducer connected to a Beckman® recorder. Atria were allowed to beat spontaneously under a loading tension of approximately 0.5 gm. Instrinsic depressant or stimulant activity was determined for each compound by progressively increasing concentrations in the tissue baths at 60-minute intervals. Tissues were not washed between increments. The maximum concentration showing little or no cardiodepressant activity was chosen for blockade experiments. Changes in rate in response to isoproterenol were measured in the absence and presence of test compounds. Spiral strips of guinea pig trachea were suspended under 5 gm resting tension and incubated with phentolamine, tropolone and cocaine. Active tension was generated by addition of carbachol (3.0×10^-7 M) and decreases in tension in response to isoproterenol were quantitated. Cumulative concentration-response curves were produced with isoproterenol both before and after 60 minute incubation of test compounds with atria and trachea. The blocking potency of test compounds was estimated by computing pA2 values (-log […]) by the method of Furchgott, The Pharmacological Differentiation of Adrenergic Receptors, Ann. […] The degree of cardioselectivity was estimated from the ratio, KB trachea/KB atria (10^(pA.sbsp.2^atria-pA.sbsp.2^trachea)). A ratio greater than one indicates cardioselectivity. Test drugs were dissolved in distilled water and added to the bath (30 ml) in a volume of 10 or 100 μl.

The test system of data set [2] is β-adrenergic receptors (guinea pig right atria). The description is as above. In kind it is cell-based. The following applies: ratio from pA2 atria and trachea; greater than one indicates cardioselectivity. The protocol:
as §1

Data set [3] has as its target T2, β-adrenergic receptors (guinea pig tracheal strips) (Cavia porcellus, UniProt Q8K4Z4).
T2 construct: from tissue; host or cells: guinea pig trachea (isolated spiral strips)
Put plainly: β-blocking activity in vitro, guinea pig tracheal strips (tension response to isoproterenol). It counts as cell-based. Particulars: vs isoproterenol, 60 minute incubation, 37° C., read-out: pA2 Trachea (converted). Here is the method:
as §1

Data set [4] concerns heart rate response to isoproterenol. Put plainly: Duration of beta-blockade in vivo, anesthetized dogs, 40-minute infusion. Particulars: for Recovery Times 50%: 50% recovery of heart rate after 40-minute infusion; for Recovery Times 50% / Recovery Times 80% / Recovery Times 100%: normalized to 50% inhibition, dog; for Recovery Times 80%: 80% recovery of heart rate after 40-minute infusion; for Recovery Times 100%: 100% recovery of heart rate after 40-minute infusion; for ED50: Canis lupus familiaris, iv, 40 min, read-out: Potency. Further details: species or system dog. The protocol:
(§2) The duration of beta-blockade was determined in vivo using pentobarbitalanesthetized dogs instrumented for measurement of heart rate using a Beckman® cardiotachometer triggered electronically by a phasic aortic blood pressure signal. Both vagus nerves were severed in the cervical region and the animals were mechanically ventilated. Two experimental designs were used. The first employed a 40-minute infusion of test compound and the second used a 3-hour infusion of test compound. In the 40-minute model, isoproterenol was infused into a foreleg vein at the rate of 0.5 μg/kg/min to induce a beta-receptor mediated tachycardia. Various doses of test compound where then infused into a femoral vein over a period of 40 minutes. This infusion was then terminated and recovery from blockade was quantitated. […] This cumulative dose is expressed as mg/kg and is an indication of potency. The time period required for 80% recovery of heart rate for each dose of test drug was also measured to quantitate duration of action. […] Test compounds were dissolved in 0.9% NaCl and infused at a rate of 0.05 ml/kg/min or less. In the 3-hour infusion model, bolus doses of isoproterenol (0.5 μg/kg) were used to assess the degree of beta-blockade and recovery from beta-blockade after termination of the infusion. The doses were spaced at 10-minute intervals and were given before, during and following the infusion of test compounds. The infusion rate was adjusted so that at the end of the 3-hour infusion period the degree of isoproterenol inhibition averaged about 50% of control.

For data set [5] the test system is unchanged. Nature of the data set: Duration of beta-blockade in vivo, anesthetized dogs, 3-hour infusion. Particulars: dog; for 80% Recovery Time: after termination of 3-hour infusion; for % I (Percent inhibition of heart rate response to isoproterenol): end of 3-hour infusion, bolus isoproterenol 0.5 μg/kg. Here is the method:
as §2

Data set [6] is described as follows: Disappearance in vitro in human whole blood. The following applies: 50 μg test compound, 37° C., read-out: T1/2 Human Whole Blood. It counts as in vitro ADME. The protocol:
(§3) The rate of disappearance of a compound is expressed as the half-life (T1/2), which is the time period in which one half of the initial amount of compound tested disappears. […] The samples were incubated in a Dubnoff shaking metabolic incubator for 2.5, 5.0, 10.0, 20.0, 30.0 and 60.0 minutes at 37° C. At the designated time periods, the test mixtures were removed from the incubator and transferred to a 0° C. ice bath. Acetonitrile (2 ml) was immediately added and the mixtures were mixed to stop enzymatic hydrolysis. Zero time samples were prepared by adding 2 ml. of acetonitrile to denature the proteins prior to addition of the test compounds. After centrifugation to sediment denatured proteins, 2 ml. of the supernatant was removed and analyzed by high pressure liquid chromatography, using a mobile phase of 60% acetonitrile/40% 0.05 m sodium phosphate buffer (pH 6.6), a U.V. detector and Waters® μ Bondapak Phenyl column. The half life of each test compound was determined graphically by plotting the decrease in concentration as a function of time.

A short description of data set [7]: Disappearance in vitro in dog whole blood. It counts as in vitro ADME. Particulars: 50 μg test compound, 37° C., read-out: T1/2 Dog Whole Blood. Here is the method:
as §3

Where a name gives a salt, the structure may show the parent alone.

T2 sequence (Q8K4Z4 whole entry): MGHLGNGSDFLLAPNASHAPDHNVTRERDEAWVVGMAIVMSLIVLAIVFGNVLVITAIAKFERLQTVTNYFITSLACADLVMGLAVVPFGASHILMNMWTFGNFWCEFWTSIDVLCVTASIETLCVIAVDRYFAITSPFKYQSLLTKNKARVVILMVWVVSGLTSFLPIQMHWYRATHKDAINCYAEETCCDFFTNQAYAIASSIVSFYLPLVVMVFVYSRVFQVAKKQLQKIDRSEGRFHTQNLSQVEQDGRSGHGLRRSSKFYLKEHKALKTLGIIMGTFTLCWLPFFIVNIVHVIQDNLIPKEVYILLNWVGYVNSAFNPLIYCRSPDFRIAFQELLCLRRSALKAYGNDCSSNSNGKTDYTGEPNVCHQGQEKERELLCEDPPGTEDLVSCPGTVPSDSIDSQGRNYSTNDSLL
T1 sequence (H0W3H1 1-470): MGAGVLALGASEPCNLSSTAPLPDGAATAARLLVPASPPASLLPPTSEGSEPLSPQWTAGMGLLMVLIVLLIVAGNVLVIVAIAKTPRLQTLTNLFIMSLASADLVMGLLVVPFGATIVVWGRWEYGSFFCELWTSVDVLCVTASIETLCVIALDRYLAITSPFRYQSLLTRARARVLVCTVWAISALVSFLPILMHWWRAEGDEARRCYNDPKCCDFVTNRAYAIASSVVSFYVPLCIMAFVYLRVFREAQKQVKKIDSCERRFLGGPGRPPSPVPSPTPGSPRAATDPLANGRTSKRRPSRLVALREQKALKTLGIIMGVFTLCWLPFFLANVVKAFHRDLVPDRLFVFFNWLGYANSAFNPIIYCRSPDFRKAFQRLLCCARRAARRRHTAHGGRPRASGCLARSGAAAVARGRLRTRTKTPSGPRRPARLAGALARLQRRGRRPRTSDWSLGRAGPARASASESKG

As to `COc1ccc(CCNCC(O)C(=O)Oc2ccccc2)cc1OC` (centres unmarked) [Example I, N-(3,4-Dimethoxyphenethyl)-N-[(2-hydroxy-2-phenoxycarbonyl)ethyl-]amine Hydrochloride], the Kb in data set [1] was 1260 nM. The “Cardioselectivity KB (Trachea)/KB (Atria)” value (from here on “Cardioselectivity KB”) in data set [2] was 1. Moreover, in data set [3], the Kb is 1260 nM. In data set [4], the “Recovery Times 50%” value turned out to be 6 ± 1 min, the “Recovery Times 80%” value stood at 11 ± 1 min, the “Recovery Times 100%” value was determined as 16 ± 2 min and the ED50 is 3.5 ± 0.5 mg/kg.

With `COc1ccc(CCNCC(O)COC(=O)c2cccc(C)c2)cc1OC` (centres unmarked) [Example IX], in data set [4], the “Recovery Times 50%” value is 6 ± 1 min, the “Recovery Times 80%” value stood at 10 ± 1 min, the “Recovery Times 100%” value is 16 ± 2 min and the ED50 came out at 4.7 ± 1.7 mg/kg.

For `CC(C)NCC(O)COC(=O)c1ccc(N)cc1` (centres unmarked) [Example LIV, [2-Hydroxy-3-(isopropylamino)]propyl 4-aminobenzoate hydrochloride], in data set [5], the “80% Recovery Time” value is given as above 60 min and the “% I (Percent inhibition of heart rate response to isoproterenol)” value is listed as 80 ± 4%.

Take `CC(C)NCC(O)COC(=O)c1cccc(N)c1` (centres unmarked) [Example LV]: the Kb was 398 nM in data set [1] and 158 nM in data set [3].

On to `CC(=O)Nc1ccc(C(=O)OCC(O)CNC(C)C)cc1` (centres unmarked) [Example LXII, [2-Hydroxy-3-(isopropylamino)]propyl 4-(acetamido)benzoate hydrochloride], for which the results for the Kb in data set [1] and in data set [3] were 1580 nM and 6310 nM, respectively. In addition, the “Cardioselectivity KB” value in data set [2] is recorded as 4.

Consider `CC(C)NCC(O)COC(=O)c1ccc(CO)cc1` (centres unmarked) [Example LXIV, [2-Hydroxy-3(isopropylamino)]propyl 4-(hydroxymethyl)benzoate hydrochloride], for which, in data set [3], the Kb was 501 nM.

Turning to `COc1ccccc1COC(=O)C(O)CNCCc1ccc(OC)c(OC)c1` (centres unmarked) [Example V, 2-Methoxybenzyl 3-[[N-(3,4-Dimethoxyphenethyl)]amino]-2-hydroxypropionate], in data set [1], the “pA2 Atria” value is “inactive”. The Kb in data set [3] was 10000 nM. Besides, in data set [4] (cumulative dose over 40-minute infusion, normalized to 50% inhibition of isoproterenol response, dog i.v.), the Potency entry is listed as “low”.

Consider `Cc1cccc(C(=O)OCC(O)CNC(C)C)c1` (centres unmarked) [Example VIII], for which the Kb in data set [1] was 158 nM. Moreover, the Kb in data set [3] was 50.1 nM. For the same compound, in data set [4], the “Recovery Times 50%” value was determined as 7 ± 1 min, the “Recovery Times 80%” value stood at 14 ± 3 min, the “Recovery Times 100%” value stood at 20 ± 4 min and the ED50 is 1.83 ± 0.11 mg/kg.

For the compound `CC(C)NCC(O)COC(=O)c1cccc([N+](=O)[O-])c1` (centres unmarked) [Example XXI], the Kb in data set [1] is 158 nM; in data set [3] it was 63.1 nM.

Turning to `CC(C)NCC(O)COC(=O)c1ccc(F)cc1` (centres unmarked) [Example XX], the Kb is 251 nM in data set [1] and 50.1 nM in data set [3]. The half-life in data set [6] was found to be 3.5 ± 0.9 min; in data set [7], 4 min.

Regarding `COc1ccc(CCNCC(O)C(=O)Oc2ccccc2C)cc1OC` (centres unmarked) [II], the Kb in data set [1] was 1260 nM.

As to `CCC(C)(C)NCC(O)COC(=O)c1ccccc1F` (centres unmarked) [LIII], the Kb in data set [1] was 158 nM.

Take `CC(C)NCC(O)COC(=O)c1ccc(O)cc1` (centres unmarked) [LVI]: the values for the Kb in data set [1] and in data set [3] were 158 nM and 63.1 nM, respectively. Besides, the “% I (Percent inhibition of heart rate response to isoproterenol)” value in data set [5] amounted to 79 ± 9%.

With `CCCNCC(O)COC(=O)c1ccc(N)cc1` (centres unmarked) [LXV, [2-Hydroxy-3-(n-propyl)amino]propyl 4-aminobenzoate oxalate], the Kb in data set [1] was 1260 nM.

`COc1ccc(CCNCC(O)COC(=O)c2ccc(CO)cc2)cc1OC` (centres unmarked) [LXVI, [2-Hydroxy-3-[(N3,4-dimethoxyphenethyl)amino]propyl 4-(hydroxymethyl) benzoate oxalate]: the Kb in data set [1] was above 3160 nM.

As for `CC(C)NCC(O)COc1cccc2ccccc12` (centres unmarked) [Propranolol, reference compound], in data set [4], the “Recovery Times 50%” value came to 23 ± 4 min, the “Recovery Times 80%” value was found to be 42 ± 8 min and the “Recovery Times 100%” value worked out at 58 ± 9 min. Besides, the “80% Recovery Time” value in data set [5] is above 60 min.

On to `CC(C)NCC(O)COC(=O)c1cccc(F)c1` (centres unmarked) [XIX], for which the half-life in data set [6] came to 8 ± 4 min; in data set [7] it was 50 min. Besides, the Kb in data set [3] is 100 nM.

Regarding `Cc1cccc(C(=O)OCC(O)CNC(C)(C)C)c1` (centres unmarked) [XLII], the half-life in data set [6] was found to be 5.5 ± 2.6 min; in data set [7], 150 min.

Turning to `Cc1ccccc1C(=O)OCC(O)CNC(C)(C)C` (centres unmarked) [XLI], the half-life in data set [6] and in data set [7] was above 180 min in each case.

Consider `CC(C)(C)NCC(O)COC(=O)c1ccc(F)cc1` (centres unmarked) [XL], for which the half-life is 11 ± 5 min in data set [6] and 13 min in data set [7].

For the compound `CC(C)NCC(O)COC(=O)c1ccccc1F` (centres unmarked) [XVIII], the half-life in data set [6] turned out to be 1.7 ± 0.6 min. Moreover, the Kb in data set [3] is 79.4 nM. Further, in data set [4], the “Recovery Times 80%” value is 8 ± 1 min and the ED50 was 1.5 mg/kg. Besides, the half-life in data set [7] was found to be 7 min. Besides, in data set [5], the “80% Recovery Time” value was 25 ± 9 min and the “% I (Percent inhibition of heart rate response to isoproterenol)” value stood at 46 ± 5%.

Regarding `CC(C)NCC(O)COC(=O)c1ccc2ccccc2c1` (centres unmarked) [XVI], the Kb in data set [1] is 398 nM; in data set [3], 251 nM.

`CC(C)NCC(O)COC(=O)c1cccc2ccccc12` (centres unmarked) [XV]: the Kb in data set [1] is 251 nM. For the same compound, in data set [3], the Kb is 100 nM. Moreover, in data set [4], the “Recovery Times 50%” value stood at 18 min, the “Recovery Times 80%” value is 22 min, the “Recovery Times 100%” value is 38 min and the ED50 was determined as 1.5 mg/kg. In data set [5], the “80% Recovery Time” value is above 60 min and the “% I (Percent inhibition of heart rate response to isoproterenol)” value is on record as 54%.

`CCCOc1ccccc1C(=O)OCC(O)CNC(C)C` (centres unmarked) [XXVII]: the Kb in data set [1] is 251 nM. Further, in data set [5], the “80% Recovery Time” value was above 60 min and the “% I (Percent inhibition of heart rate response to isoproterenol)” value amounted to 69%.

Take `COc1ccc(CCNCC(O)COC(=O)c2ccccc2F)cc1OC` (centres unmarked) [XXXIII]: the figures for the Kb in data set [1] and in data set [3] were 794 nM and 2000 nM, respectively. Besides, the “Cardioselectivity KB” value in data set [2] is given as 2.5.

On to `COc1ccc(CCNCC(O)COC(=O)c2cccc(F)c2)cc1OC` (centres unmarked) [XXXIV], for which the Kb was 398 nM in data set [1] and 631 nM in data set [3]. For the same compound, in data set [2], the “Cardioselectivity KB” value turned out to be 2.

Take `COc1ccc(CCNCC(O)COC(=O)c2ccccc2C)cc1OC` (centres unmarked) [XXXI]: in data set [5], the “80% Recovery Time” value is above 60 min and the “% I (Percent inhibition of heart rate response to isoproterenol)” value is given as 85%.

`CC(C)(C)NCC(O)COC(=O)c1ccccc1` (centres unmarked) [XXXVII]: the Kb was 158 nM in data set [1] and 20 nM in data set [3]. The half-life in data set [6] amounted to 5.3 ± 1 min; in data set [7], 5.5 min. The “80% Recovery Time” value in data set [5] was above 60 min. In addition, the “% I (Percent inhibition of heart rate response to isoproterenol)” value in data set [5] is recorded as 64 ± 5%.

For the compound `CC(C)NCC(O)COC(=O)c1ccc(OCc2ccccc2)cc1` (centres unmarked) [XXX], the Kb in data set [1] was above 1000 nM.
